Test results from patent US20220088007A1 (priority 2010, published 2022).
Read-outs that look alike come from different tables or passages of the source.

How the values were obtained:
[1] = Example 2 (NB-236): steady-state food-effect extension study of NB 8/90 tablets, plasma pharmacokinetics
Description: A phase I, open label, steady-state study was performed to assess the plasma pharmacokinetics of NB tablets under fed and fasted conditions. An extension of the study allowed for the evaluation of the effect of food on the pharmacokinetics of NB tablets.
Days 1-31 of the study were devoted to the primary investigation of metoprolol pharmacokinetics in the context of steady-state dosing with NB tablets. Subjects (n=18) received a metoprolol 50 mg IR tablet on Days 1 and 31. NB was dose escalated every week from a single NB 8/90 tablet per day on Day 3 to a maximum dose of NB 32/360 (two NB 8/90 tablets BID) starting on Day 24. In the clinic setting (Days 1-3 and 27-31), standardized meals were provided before dosing and pharmacokinetic sampling. These meals were moderate in fat and caloric content. Subjects were instructed to take study medication with food during the outpatient (Days 4-26) phase of the study.
Subjects enrolling in the optional extension continued BID dosing administration (with moderate meals) through Day 32. […] The evening dose on Day 33, study medication was given with food (“moderate” meal). For Day 34, subjects received their morning dose under the opposite condition from what they received on the morning of Day 33. […] For purposes of studying the effects of food, the comparisons were between Day 30 pharmacokinetics (“moderate” meal) and the fasted and high-fat meal conditions administered on Day 33 and Day 34.

[2] = Example 1 (NB-233): single-dose crossover food-effect study of NB 8/90 trilayer tablets, plasma pharmacokinetics; settings: for increase in Cmax: high-fat conditions compared to fasted conditions; for Cmax between high-fat and fasted conditions (in words): 90% CIs within 80% to 125% range
[3] = in vivo
clinical [4] = settings: human
[5] = Example 3 (NB-239 vs NB-237): single dose NB 8/90 tablets, moderate-fat, moderate-calorie meal vs fasted, cross-study comparison; settings: for Cmax: single dose two NB 8/90 tablets
[6] = human, in vivo
clinical [7] = settings: both, human
[8] = fed moderate-fat meal, mean ± SD
[9] = fed moderate-calorie, moderate-fat meal, mean ± SD
[10] = fed (high-fat meal), arithmetic mean ± SD

## Oc1ccc2c3c1O[C@H]1[C@H](O)CC[C@@]4(O)[C@@H](C2)N(CC2CC2)CC[C@]314 [6β-naltrexol]
[1]; steady state, two NB 8/90 tablets
  effect of food (moderate-fat or high-fat meal) on exposure relative to the fasted state (in words): neither meal type appeared to affect
[2]
  increase in Cmax: 52%

## CC(NC(C)(C)C)C(=O)c1cccc(Cl)c1 (stereo not shown) [Bupropion, bupropion]
[1]; both, human, in vivo
  Cmin: 41.6 ± 10.4 ng/mL
[1]; both, human, in vivo, po
  AUC0-t: 965 ± 249 ng·h/mL
[1]; both, human, in vivo, po, Tmax
  Tmax: 1.99 h
[1]; steady state, morning dose two NB 8/90 tablets fasted, Day 33 or 34, mean ± SD
  Cmax: 131 ± 38.2 ng/mL
[1]; steady state, morning dose two NB 8/90 tablets fed high-fat meal, Day 33 or 34, mean ± SD
  Cmax: 167 ± 43.4 ng/mL
[1]; steady state, two NB 8/90 tablets BID, fed moderate meal, Day 30, mean ± SD
  Cmax: 156 ± 52.5 ng/mL
[2]; fasted, arithmetic mean ± SD
  AUC0-t: 1550.91 ± 549.08 ng·h/mL
[3]; both, human
  AUC0-t Fed to Fasted % MR: 139.50%
  t1/2 apparent terminal elimination half-life: 20.44 h
[3]
  apparent terminal elimination t1/2, fed vs fasted conditions (in words): similar
  median Tmax, fed vs fasted conditions (in words): one hour shorter
Clinical [4]; in vivo
  Tmax: 2.07 h
[5]; fasted, mean ± SD
  AUC0-t: 1496.01 ± 323.04 ng·h/mL
  AUC0-∞: 1574.93 ± 346.49 ng·h/mL
  t1/2: 19.83 ± 3.24 h
  Cmax: 156 ± 36.9 ng/mL
[5]; [8]
  AUC0-∞: 1384.85 ± 330.19 ng·h/mL
[5]; [9]
  Cmax: 154 ± 55.4 ng/mL
[6]
  AUC0-t % MR, fed (moderate-fat) to fasted: 91.55%
Clinical [7]; in vivo
  AUC(0-inf): 1620 ± 574 ng·h/mL
  Cmax: 161 ± 52.1 ng/mL

## O=C1CC[C@@]2(O)[C@H]3Cc4ccc(O)c5c4[C@@]2(CCN3CC2CC2)[C@H]1O5 [Naltrexone, naltrexone]
[1]; both, human, plasma, po, fasted, Day 33 or 34, mean ± SD
  AUC0-t: 7.07 ± 2.88 ng·h/mL
[1]; both, human, plasma, po, fed high-fat meal, Day 33 or 34, mean ± SD
  AUC0-t: 11.8 ± 4.68 ng·h/mL
[1]; both, human, plasma, po, fed moderate meal, Day 30, mean ± SD
  AUC0-t: 11.7 ± 4.45 ng·h/mL
[1]; both, human, plasma, po, Cmax, steady state, morning dose two NB 8/90 tablets fasted, Day 33 or 34, mean ± SD
  Cmax: 1.47 ± 0.71 ng/mL
[1]; both, human, plasma, po, Cmax, steady state, morning dose two NB 8/90 tablets fed high-fat meal, Day 33 or 34, mean ± SD
  Cmax: 2.84 ± 1.53 ng/mL
[1]; both, human, plasma, po, Cmax, steady state, two NB 8/90 tablets BID, fed moderate meal, Day 30, mean ± SD
  Cmax: 2.6 ± 1.02 ng/mL
[1]; both, human, plasma, po, Tmax, fasted, Day 33 or 34, median (minimum, maximum)
  Tmax: 0.75 h
[1]; both, human, plasma, po, Tmax, fed moderate meal, Day 30, median (minimum, maximum)
  Tmax: 2 h
[1]; fasted, Day 33 or 34, mean ± SD
  Cmin: 0.172 ± 0.0758 ng/mL
[1]; fed high-fat meal, Day 33 or 34, mean ± SD
  Cmin: 0.159 ± 0.0895 ng/mL
[1]; fed high-fat meal, Day 33 or 34, median (minimum, maximum)
  Tmax: 3.00 (1.25, 6.00) hr
[1]; fed moderate meal, Day 30, mean ± SD
  Cmin: 0.195 ± 0.105 ng/mL
[1]; high-fat, high-calorie meal
  lower Cmin versus the fasted condition: 12%
[1]; moderate-fat, moderate-calorie meal
  higher Cmin versus the fasted condition: 10%
[1]; steady state
  Cmin % MR, high-fat fed to fasted: 88.39%
  Cmin % MR, high-fat to moderate-fat: 80.15%
  Cmin % MR, moderate-fat fed to fasted: 110.04%
[1]; steady state, morning dose
  effect of changing meal from moderate-fat, moderate-calorie to high-fat, high-calorie (in words): no effect
[2]; fasted, arithmetic mean ± SD
  AUC0-t: 7.98 ± 4.04 ng·h/mL
[2]; [10]
  AUC0-t: 16.42 ± 8.70 ng·h/mL
  AUC0-∞: 16.65 ± 8.70 ng·h/mL
[2]; fed (high-fat meal), median (minimum, maximum)
  Tmax: 2.00 (0.75, 6.00) hr
[2]; fed vs fasted
  median Tmax, fed vs fasted conditions (in words): similar
[2]; high-fat fed vs fasted
  AUC0-t Fed to Fasted % MR: 211.50%
[2]; plasma, single dose two NB 8/90 tablets, fed (high-fat meal), arithmetic mean ± SD
  Cmax: 4.00 ± 2.52 ng/mL
Clinical [4]; plasma, oral
  AUC0-t: 8.3 ± 6.41 ng·h/mL
  AUC(0-inf): 8.55 ± 6.46 ng·h/mL
  Cmax: 1.34 ± 0.763 ng/mL
  Tmax: 1.27 h
[5]; [8]
  AUC0-t: 13.41 ± 6.93 ng·h/mL
  AUC0-∞: 13.63 ± 7.15 ng·h/mL
[5]; fed moderate-fat meal, median (minimum, maximum)
  Tmax: 2.00 (0.75, 6.00) hr
[5]; [9]
  Cmax: 2.65 ± 1.18 ng/mL
Clinical [7]; plasma, oral
  AUC(0-inf): 8.39 ± 4.26 ng·h/mL
  Tmax: 2 h

## CC(NC(C)(C)C)C(O)c1cccc(Cl)c1 (stereo not shown) [erythrohydrobupropion]
[2]
  Cmax between high-fat and fasted conditions (in words): comparable

## C[C@H]1NC(C)(C)CO[C@]1(O)c1cccc(Cl)c1 [hydroxybupropion]
[2]
  Cmax between high-fat and fasted conditions (in words): comparable

## C[C@H](NC(C)(C)C)[C@@H](O)c1cccc(Cl)c1 [threohydrobupropion]
[2]
  increase in Cmax: 26%
